Measurements taken from US12590094B2, “Compounds for the treatment of neurodegenerative and metabolic disorders” (UNIVERSITY OF FLORIDA RESEARCH FOUNDATION, INCORPORATED, priority 2019, dated 2026).
Where two headings read alike, the source gives them in different places.

Legend:
Assay in all cases: cells
[1] = test system: PK1 neuroblastoma cells treated with TPrP; type: cell-based; settings: Neuroblastoma cell, read-out: NAD EC50
[2] = test system: PK1 neuroblastoma cells treated with TPrP; type: cell-based; settings: for EC50: Neuroblastoma cell, read-out: Viability EC50
Cells exposed to TPrP = settings: read-out: Viability EC50

Compound | EC50 (Cells exposed to TPrP) [nM] | further results
NS(=O)(=O)c1ccc(Nc2nc(-c3ccccn3)cs2)cc1 [SR1-477176] |  | EC50 [1]: 891 nM; EC50 [2]: 227 nM
CCOc1ccc(-c2cc(C)n3ncc(C(=O)NCCCn4ccnc4C)c3n2)cc1 [SR0-29245] | 1.2 | 
Cc1nc(C)c(-c2csc(Nc3ccc(S(=O)(=O)N4CCCCC4)cc3)n2)s1 [SR-28547] | > 500 | 
COc1cc(-c2cc(C)n3ncc(C(=O)NCCCn4ccnc4C)c3n2)cc(OC)c1OC [SR0-29248] | 4 | 
NS(=O)(=O)c1ccc(Nc2nc(-c3ccccc3)cs2)cc1 [SR1-492469] |  | EC50 [1]: 859 nM; EC50 [2]: 311 nM
Cc1nc2ncccn2c1-c1csc(Nc2ccc(S(N)(=O)=O)cc2)n1 [SR1-477264] |  | EC50 [1]: 597 nM; EC50 [2]: 155 nM
COc1ccc(-c2nnc3c4ccccc4c(C)nn23)cc1S(=O)(=O)N1CCOCC1 [SR5-22837] |  | EC50 [1]: 89 nM; EC50 [2]: 29 nM
NS(=O)(=O)c1ccc(Nc2nc(-c3ccncc3)c(CO)s2)cc1 [SR-28550] | 60 | 
COCCNS(=O)(=O)c1cc(-c2nnc3c4ccccc4c(C)nn23)ccc1C [SR5-22841] |  | EC50 [1]: 688 nM; EC50 [2]: 130 nM
COc1cc2nccc(Oc3ccc(NC(=O)Nc4cc(C)on4)c(Cl)c3)c2cc1OC [tivozanib, reference compound] |  | neuroprotective activity in the TPrP assay [2]: entirely lacked neuroprotective activity
NS(=O)(=O)c1ccc(Nc2nc(-c3cc4ccccc4oc3=O)cs2)cc1 [SR1-22833] |  | EC50 [1]: 245 nM; EC50 [2]: 57 nM
COc1ccc(-c2cc(C(F)(F)F)n3ncc(C(=O)NCCCn4ccnc4C(F)(F)F)c3n2)cc1 [SR0-28466] | 20 | 
COc1ccc(CNc2nnc(Cc3ccncc3)c3ccccc23)cc1OC [SR-27886] | 140 | 
CNS(=O)(=O)c1cc(-c2nnc3c4ccccc4c(C)nn23)ccc1C [SR1-115255] |  | EC50 [1]: 1200 nM; EC50 [2]: 196 nM
CCc1cc(-c2ccc(OC)cc2)nc2c(C(=O)NCCCn3ccnc3)cnn12 [SR3-5310] | 0.6 | 
c1ccc2c(c1)CC(CNc1nnc(Cc3ccncc3)c3ccccc13)O2 (stereo not shown) [SR-30024] | 8 | 
O=S(=O)(c1ccc(Nc2nc(-c3ccncc3)cs2)cc1)N1CCCC1 [SR-28544] | 350 | 
COc1ccc(-c2csc(Nc3ccc(S(N)(=O)=O)cc3)n2)cc1 [SR1-223735] |  | EC50 [1]: 360 nM; EC50 [2]: 87 nM
c1coc(CNc2nnc(Cc3ccncc3)c3ccccc23)c1 [SR-30005] | 15 | 
c1ccc2c(c1)CC(Nc1nnc(Cc3ccncc3)c3ccccc13)CO2 (stereo not shown) [SR-27889] | 200 | 
O=C(NCCCn1ccnc1)c1cnn2c(C(F)(F)F)cc(-c3ccc(-c4ccco4)cc3)nc12 [SR1-550907] |  | EC50 [1]: 9.7 nM; EC50 [2]: 2.9 nM

Compound | EC50 (Cells exposed to TPrP) [nM] | further results
COc1cc(OC)c2cc(-c3ccncc3)cnc2c1 [DMPQ] |  | EC50 [1]: 5500 nM; EC50 [2]: 505 nM
Cc1nccn1CCCNC(=O)c1cnn2c(C(C)(C)C)cc(-c3ccc4c(c3)OCO4)nc12 [SR0-31104] | 10 | 
c1ccc2c(c1)OCCC2Nc1nnc(Cc2ccncc2)c2ccccc12 (stereo not shown) [SR-27891] | 200 | 
COc1ccc(-c2cc(N3CCCC3)n3ncc(C(=O)NCCCn4ccnc4C)c3n2)cc1 [SR0-29249] | 2.2 | 
CNS(=O)(=O)c1ccc(Nc2nc(-c3ccncc3)cs2)cc1 [SR-27806] | 60 | 
COc1ccc(-c2cc(C(F)(F)F)n3ncc(C(=O)N(C)CCCn4ccnc4)c3n2)cc1 [SR3-5314] | > 16 | 
Cc1ccc(NS(=O)(=O)c2ccc(Nc3nc(-c4ccncc4)cs3)cc2)cc1 [SR-29446] | > 500 | 
CCCNS(=O)(=O)c1ccc(Nc2nc(-c3sc(C)nc3C)cs2)cc1 [SR-27805] | > 500 | 
COCc1cc(-c2ccc(OC)cc2)nc2c(C(=O)NCCCn3ccnc3)cnn12 [SR3-5250] | 0.5 | 
COc1ccc(-c2cc(C(F)(F)F)n3ncc(C(=O)NCCn4ccnc4)c3n2)cc1 [SR3-5290] | > 32 | 
COc1ccc(-c2cc(=O)c3c(O)cc(OC)cc3o2)cc1 [SR5-2549, 5-hydroxy-7-methoxy-2-(4-methoxyphenyl)-4H-chromen-4-one] |  | EC50 [1]: 7300 nM; EC50 [2]: 2000 nM
NS(=O)(=O)c1ccc(Nc2nc(-c3ccc(S(N)(=O)=O)cc3)cs2)cc1 [SR-29450] | 15 | 
CCNS(=O)(=O)c1ccc(Nc2nc(-c3sc(C)nc3C)cs2)cc1 [SR-27785] | 500 | 
Cc1nccn1CCCNC(=O)c1cnn2c(C)cc(-c3ccc(OC(F)(F)F)cc3)nc12 [SR0-29246] | 2 | 
COc1ccc(-c2cc(C(F)(F)F)n3nc(C)c(C(=O)NCCCn4ccnc4C)c3n2)cc1 [SR0-29250] | 3.6 | 
Cc1nc(C)c(-c2csc(Nc3ccc(S(=O)(=O)Nc4ccc(F)cc4)cc3)n2)s1 [SR-29449] | > 500 | 
c1ccc2c(c1)CCC2Nc1nnc(Cc2ccncc2)c2ccccc12 (stereo not shown) [SR-27884] | 500 | 
c1ccc2oc(CNc3nnc(Cc4ccncc4)c4ccccc34)nc2c1 [SR-27888] | 45 | 
CCNS(=O)(=O)c1ccc(Nc2nc(-c3ccncc3)cs2)cc1 [SR-27784] | 60 | 
CCc1c(C(=O)O)ncc2[nH]c3cc(OC)c(OC)cc3c12 [SR26266] | > 4000 | 
Cc1nc(C)c(-c2csc(Nc3ccc(S(=O)(=O)N(C)C)cc3)n2)s1 [SR-27764] | 70 | 

Compound | EC50 (Cells exposed to TPrP) [nM] | further results
Cc1nc(C)c(-c2csc(Nc3ccc(S(=O)(=O)N4CCOCC4)cc3)n2)s1 [SR-28549] | 400 | 
Cc1c(-c2ccc3c(c2)OCO3)nc2c(C(=O)NCCCn3ccnc3C)cnn2c1C [SR0-31106] | 30 | 
c1ccc2oc(CNc3nnc(Cc4ccncc4)c4ccccc34)cc2c1 [SR-30011] | 2 | 
CCCCNS(=O)(=O)c1ccc(Nc2nc(-c3ccncc3)cs2)cc1 [SR-27808] | 170 | 
O=S(=O)(c1ccc(Nc2nc(-c3ccncc3)cs2)cc1)N1CCCCC1 [SR-28546] | 400 | 
CC1(c2cccc(Nc3nnc(Cc4ccncc4)c4ccccc34)c2)OCCO1 [SR-30012] | 2 | 
CCCNS(=O)(=O)c1ccc(Nc2nc(-c3ccncc3)cs2)cc1 [SR-27804] | 170 | 
Cc1cc(-c2ccc3c(c2)OCO3)nc2c(C(=O)NCCCn3ccnc3S(C)(=O)=O)cnn12 [SR0-31110] | > 50 | 
COc1ccc(-c2cc(C(F)(F)F)n3ncc(C(=O)NCCCCn4ccnc4)c3n2)cc1 [SR3-5312] | 6 | 
CCOC(=O)c1c(CC)ncc2[nH]c3cc(OC)c(OC)cc3c12 [SR26084] | ~10000 | 
COc1ccc(-c2cc(C(F)(F)F)n3ncc(C(=O)NCCCn4ccnc4F)c3n2)cc1 [SR0-28467] | 16 | 
CNC(=O)c1cc(Oc2ccc(NC(=O)Nc3ccc(Cl)c(C(F)(F)F)c3)cc2)ccn1 [sorafenib, reference compound] |  | neuroprotective activity in the TPrP assay [2]: entirely lacked neuroprotective activity
O=S(=O)(Nc1ccc(F)cc1)c1ccc(Nc2nc(-c3ccncc3)cs2)cc1 [SR-29448] | > 500 | 
Cc1nc(C)c(-c2csc(Nc3ccc(S(=O)(=O)N4CCCC4)cc3)n2)s1 [SR-28545] | > 500 | 
c1ccc2c(c1)CC(Nc1nnc(Cc3ccncc3)c3ccccc13)C2 [SR-27885] | 200 | 
O=S(=O)(Nc1ccccc1)c1ccc(Nc2nc(-c3ccncc3)cs2)cc1 [SR-29444] | > 500 | 
CN(C)S(=O)(=O)c1ccc(Nc2nc(-c3ccncc3)cs2)cc1 [SR-27744] | 60 | 
Cc1ccc(NS(=O)(=O)c2ccc(Nc3nc(-c4sc(C)nc4C)cs3)cc2)cc1 [SR-29447] | > 500 | 
O=S(=O)(c1ccc(Nc2nc(-c3ccncc3)cs2)cc1)N1CCOCC1 [SR-28548] | 170 | 
COc1ccc(-c2cc(C)n3ncc(C(=O)NCCCn4ccnc4)c3n2)cc1 [SR3-5170] | 1 | 
c1ccc2oc(Nc3nnc(Cc4ccncc4)c4ccccc34)nc2c1 [SR-30010] | 2 | 

Compound | EC50 (Cells exposed to TPrP) [nM] | further results
Cc1nc(C)c(-c2nc(Nc3ccc(S(N)(=O)=O)cc3)sc2CO)s1 [SR-28551] | 300 | 
c1ccc2c(c1)CC(CNc1nnc(Cc3ccncc3)c3ccccc13)CO2 (stereo not shown) [SR-27890] | 140 | 
c1ccc2[nH]c(CNc3nnc(Cc4ccncc4)c4ccccc34)nc2c1 [SR-27887] | 200 | 
CO/N=C(\C)c1cccc(Nc2nnc(Cc3ccncc3)c3ccccc23)c1 [SR-30014] | 2 | 
CCc1nccn1CCCNC(=O)c1cnn2c(C(F)(F)F)cc(-c3ccc(OC)cc3)nc12 [SR0-29244] | 25 | 
c1ccc(OCCNc2nnc(Cc3ccncc3)c3ccccc23)cc1 [SR-27892] | 500 | 
c1ccc2c(NCC3CCOCC3)nnc(Cc3ccncc3)c2c1 [SR-30008] | 8 | 
c1ccc2c(NCC3CCCO3)nnc(Cc3ccncc3)c2c1 (stereo not shown) [SR-30004] | 45 | 
Cc1nc(C)c(-c2csc(Nc3ccc(S(=O)(=O)Nc4ccccc4)cc3)n2)s1 [SR-29445] | > 500 | 
COc1ccc(-c2cc(C(C)(C)C)n3ncc(C(=O)NCCCn4ccnc4)c3n2)cc1 [SR0-28464] | 1.2 | 
C/C(=N\O)c1cccc(Nc2nnc(Cc3ccncc3)c3ccccc23)c1 [SR-30013] | 2 | 
c1ccc2[nH]c(CNc3nnc(Cc4ccncc4)c4ccccc34)cc2c1 [SR-30006] | 30 | 
COc1ccc(-c2cc(C(C)C)n3ncc(C(=O)NCCCn4ccnc4)c3n2)cc1 [SR3-5311] | 0.4 | 
COc1cc2nccc(Oc3ccc(NC(=O)NC4CC4)c(Cl)c3)c2cc1C(N)=O [lenvatinib, reference compound] |  | neuroprotective activity in the TPrP assay [2]: entirely lacked neuroprotective activity
CNS(=O)(=O)c1ccc(Nc2nc(-c3ccc(S(N)(=O)=O)cc3)cs2)cc1 [SR-29451] | 20 | 
CCCCNS(=O)(=O)c1ccc(Nc2nc(-c3sc(C)nc3C)cs2)cc1 [SR-27809] | > 500 | 
COc1ccc(-c2cc(C(F)(F)F)n3ncc(C(=O)NCCCn4cnc5ccccc54)c3n2)cc1 [SR3-5313] | > 16 | 
Cc1nccn1CCCNC(=O)c1cnn2c(C)cc(-c3ccc4c(c3)OCO4)nc12 [SR0-29247] | 2.2 | 
CC(O)c1cccc(Nc2nnc(Cc3ccncc3)c3ccccc23)c1 (stereo not shown) [SR-29684] | 2 | 
Cc1nc(N)sc1-c1csc(Nc2ccc(S(N)(=O)=O)cc2)n1 [SR-28552] | 160 | 
